In ChEMBL document CHEMBL1146434, “Michellamines D-F, new HIV-inhibitory dimeric naphthylisoquinoline alkaloids, and korupensamine E, a new antimalarial monomer, from Ancistrocladus korupensis” (J Nat Prod, 1997):
Converted amounts (≈) assume the structure as drawn.

Experiments:
[1] = test system: Plasmodium falciparum; test: Antimalarial activity against Plasmodium falciparum; type: functional, organism-based
[2] = test system: Human immunodeficiency virus 1; test: Antiviral activity against HIV1 A17 infected in human MT2 cells; type: functional, organism-based; conditions: Human immunodeficiency virus 1, A17, MT2
[3] = test system: Human immunodeficiency virus 1; test: Antiviral activity against HIV1 G9106 infected in human MT2 cells; type: functional, organism-based; conditions: Human immunodeficiency virus 1, G9106, MT2
[4] = test system: Human immunodeficiency virus 1; test: Antiviral activity against HIV1 RF infected in human CEM-SS cells; type: functional, organism-based; conditions: Human immunodeficiency virus 1, RF
[5] = test system: Human immunodeficiency virus 1; test: Antiviral activity against HIV1 OC100 infected in human CEM-SS cells; type: functional, organism-based; conditions: Human immunodeficiency virus 1, CEM-SS
[6] = test system: CEM-SS; test: Cytotoxicity against human CEM-SS cells; type: cell-based

| SMILES | IC50 [1] | EC50 [2] | EC50 [3] | EC50 [4] | EC50 [5] | IC50 [6] |
| --- | --- | --- | --- | --- | --- | --- |
| COc1cc(O)c(-c2ccc(OC)c3c(O)cc(C)cc23)c2c1[C@@H](C)N[C@H](C)C2 [KORUPENSAMINE E] | 2 mg/L (≈ 5.08 µM) |  |  |  |  |  |
| COc1cc(O)c(-c2cc(-c3cc(-c4c(O)cc(O)c5c4C[C@@H](C)N[C@@H]5C)c4cc(C)cc(OC)c4c3O)c(O)c3c(OC)cc(C)cc23)c2c1C(C)=N[C@H](C)C2 [MICHELLAMINE F] |  | 11 µM | 8 µM | 2 µM | 9 µM | 188 µM |
| COc1cc(C)cc2c(-c3c(O)cc(O)c4c3C[C@@H](C)N[C@@H]4C)cc(-c3cc(-c4c(O)cc(O)c5c4C[C@@H](C)N[C@@H]5C)c4cc(C)cc(OC)c4c3O)c(O)c12 [MICHELLAMINE A] |  | 18 µM | 19 µM | 6 µM | 23 µM |  |
| COc1cc(C)cc2c(-c3c(O)cc(O)c4c3C[C@H](C)N(C)[C@@H]4C)cc(-c3cc(-c4c(O)cc(O)c5c4C[C@@H](C)N[C@@H]5C)c4cc(C)cc(OC)c4c3O)c(O)c12 [MICHELLAMINE E] |  | 13 µM | 15 µM | 4 µM | 11 µM | 23 µM |
| COc1cc(O)c(-c2cc(-c3cc(-c4c(O)cc(O)c5c4C[C@@H](C)N[C@@H]5C)c4cc(C)cc(OC)c4c3O)c(O)c3c(OC)cc(C)cc23)c2c1[C@@H](C)N[C@H](C)C2 [MICHELLAMINE D] |  | 10 µM | 11 µM | 3 µM | 20 µM | 17 µM |
